Measured values as given in US12233047B2, “Pharmaceutical combination and use thereof” (ASCENTAGE PHARMA (SUZHOU) CO., LTD., priority 2019, dated 2025).

What was measured:
[1] = tested on: Human AML cell line MOLM-13 (FLT3-ITD positive and wild type TP53 gene); assay: Human MOLM-13 AML systemic mouse xenograft model, survival; type: in vivo; conditions: MOLM-13 systemic model, Compound 23 10 mg/kg, Compound C 20 mg/kg, p.o. q2d × 21 d
Protocol: The formulation of Compound C was prepared as homogenous suspension in 0.2% HPMC using a mortar. The drug suspension was prepared every three days or once a week and placed at 4° C. when not in use. Before use, the drug suspension was placed at room temperature and shaken to mix well. The formulation of Compound C was administered to mice via p.o. in a volume of 10 mL/kg.
The formulation of Compound 23 was prepared in 0.2% HPMC in a mortar to generate homogenous suspension. The drug suspension was prepared once every other day and placed at 4° C. when not in use. Before use, the drug suspension was placed at room temperature and shaken well. The formulation of Compound 23 was administered to mice via p.o. in a volume of 10 mL/kg.
MOLM-13 cell lines (Human AML cell line MOLM-13 (FLT3-ITD positive and wild type TP53 gene)) were maintained in RPMI-1640 (Cat. C11875500BT, GIBCO) with 10% fetal bovine serum (Cat. 10099-141, GIBCO), 1% L-glutamine, 100 U/mL penicillin G and 100 μg/mL streptomycin (Cat. GNM15140, Hangzhou Geno Biomedical Technology Co., Ltd). Cells were incubated at 37° C. in a humidified incubator with 5% CO2.
Six to eight weeks old, female, NOD SCID and BALB/c nude mice were used. Animals were obtained from Vital River Laboratories (VRL, Beijing, China, license number SCXK(J) 2012-0001 and SCXK(J) 2016-0006). The body weights were 17-24 g.
MOLM-13 systemic tumor model were established by injecting tumor cells into the tail vein (10×10^6 cells/mouse) under the sterile condition. To establish the MOLM-13 systemic model, all animals were intraperitoneally injected (i.p.) with cyclophosphamide (150 mg/kg) for two consecutive days before the inoculation of MOLM-13 cells. On the third day after cell inoculation, animals were randomized into 10 mice per group and treatment was initiated (day 1) according to Table 2.
The animals were euthanized when the experimental animals had symptoms such as weight loss and weight loss greater than 20%, limb paralysis, tumor metastasis to the eye causing ocular protrusion, tumor metastasis to the abdominal cavity causing abdominal enlargement. These severe health issues were considered as the same as animal death caused by tumor growth and the affected animals were sacrificed immediately.
The date of the last mouse died (the last measurement) was used for analysis of median overall survival and the generation of Kaplan-Meier plots. Survival curves of different treatment groups were compared using log-rank test with Bonferroni's multiple test. All data were analyzed in SPSS version 18.0 (IBM, Armonk, NY, U.S.A.). Prism version 6 (GraphPad Software Inc., San Diego, CA, U.S.A.) was used for graphic presentation.

[2] = tested on: Human AML cell line MV-4-11 (FLT3-ITD positive and wild type TP53 gene); assay: Human MV-4-11 AML subcutaneous mouse xenograft model; type: in vivo; conditions: MV-4-11 subcutaneous xenograft, Compound 23 10 mg/kg, Compound C 30 mg/kg
Protocol: The formulation of Compound C was prepared as homogenous suspension in 0.2% HPMC using a mortar. The drug suspension was prepared every three days or once a week and placed at 4° C. when not in use. Before use, the drug suspension was placed at room temperature and shaken to mix well. The formulation of Compound C was administered to mice via p.o. in a volume of 10 mL/kg. […] The drug suspension was prepared once every other day and placed at 4° C. when not in use. Before use, the drug suspension was placed at room temperature and shaken well. […] MV-4-11 cells (Human AML cell line MV-4-11 (FLT3-ITD positive and wild type TP53 gene)) were maintained in IMDM (Cat. C12440500BT, GIBCO), with 10% fetal bovine serum (Cat. 10099-141, GIBCO), 1% L-glutamine, 100 U/mL penicillin G and 100 μg/mL streptomycin (Cat. GNM15140, Hangzhou Geno Biomedical Technology Co., Ltd). Cells were incubated at 37° C. in a humidified incubator with 5% CO2. Six to eight weeks old, female, NOD SCID and BALB/c nude mice were used. Animals were obtained from Vital River Laboratories (VRL, Beijing, China, license number SCXK(J) 2012-0001 and SCXK(J) 2016-0006). The body weights were 17-24 g. Randomization was conducted when the size of xenograft tumors reached 100-150 mm^3. Based on the size of the tumor and body weight, animals were randomly assigned into experimental groups. […] MV-4-11 subcutaneous xenograft models were established by subcutaneously injecting tumor cells (1×10^7 cells (50% Matrigel)/mouse) into the right flank of the mouse under the sterile condition. When the tumors reached an appropriate size (100-200 mm^3), mice were randomized into 6 mice per group and treatment was initiated (day 1) according to Table 4. [table] The tumors sizes and animal body weights were measured twice a week. Tumor volumes were estimated from measurements of two diameters of the individual tumors as follows: Tumor Volume (mm^3)=(a×b^2)/2 Relative tumor volume (RTV) were calculated according to the follows: RTV=Vt/V1 where V1 and Vt were respectively the average tumor volume on the first day of treatment (day 1) and the average tumor volume on a certain time point (day T). Standard NCI procedures were used to calculate tumor parameters (Teicher, B. A. (2011). “Tumor Models in Cancer Research.” Second Edition, Human Press). Percent tumor growth inhibition (% T/C) was calculated as the mean RTV of treated tumors (T) divided by the mean RTV of control tumors (C)×100%. […] A body weight loss (mean of group) of greater than 20%, or greater than 20% of drug deaths are considered to indicate an excessively toxic dosage. The synergistic analysis was performed using the following formula described in Clarke R. Issues in experimental design and endpoint analysis in the study of experimental cytotoxic agents in vivo in breast cancer and other models[J]. Breast Cancer Research & Treatment, 1997, 46(2-3):255-278, which is incorporated by reference in its entirety: expected value=(A/C)×(B/C); actual value=(AB)/C; A: RTV of drug A; B: RTV of drug B; C=RTV of the vehicle control group; AB=RTV of the combination group. Ratio=expected/actual value. […] A ratio=1 indicates the two drugs have additive effects. A ratio <1 indicates the two drugs may have antagonist effects. According to the earlier publication (Gao, H., et al. (2015). “High-throughput screening using patient-derived tumor xenografts to predict clinical trial drug response” Nat Med 21: 1318), additional measurements of response included stable disease (SD), partial tumor regression (PR), and complete regression (CR) were determined by comparing tumor volume change at day t to its baseline: tumor volume change (%)=(Vt−V1)/V1. […] For each time t, the average of tumor volume change from t=1 to t was also calculated. […]

Question: Which “Median survival time of mice” value ([1]; vehicle 19 days) does the source give for `CCN1[C@@H](C(=O)NC23CCC(C(=O)O)(CC2)CC3)[C@H](c2cccc(Cl)c2F)[C@]2(C(=O)Nc3cc(Cl)ccc32)C12CCCCC2` [Compound C] here?
Answer: The value was 25.5 days.

Question: What about the “Prolonged survival time of mice” value ([1]; versus vehicle) of the same compound?
Answer: Its value is 6.5 days.

Question: What about the “Tumor weight on D 22 (Mean ± SEM)” value ([2]; day 22, p.o. q2d × 22 d, vehicle 2.29 ± 0.29, in g (unit assumed)) of the same compound?
Answer: Its value is 1.45 ± 0.32.

Question: And the “T/C(%)@D 22” value ([2]; mean RTV treated/control, day 22, p.o. q2d)?
Answer: The value was 59.6%.

Question: And the “RTV@D 22” value ([2]; relative tumor volume day 22, p.o. q2d, vehicle 18.2 ± 3.3)?
Answer: The value was 10.8 ± 1.6.
